According to ChEMBL document CHEMBL5625227, “Discovery and optimization of 2,3-diaryl-1,3-thiazolidin-4-one-based derivatives as potent and selective cytotoxic agents with anti-inflammatory activity” (Eur J Med Chem, 2023):
Calls of active or inactive are those of the source. The calls are words filed in the database; no cut-off is given here.

Experiments:
[1] = Acute ulcerogenic activity in Sprague-Dawley male rat assessed as congestion in edema at 50 mg/kg/day, po administered for 3 days by hematoxylin and eosin staining method; type: toxicity, organism-based; conditions: in vivo, 72 h, time 3 day
[2] = tested on: HT-29; experiment: Anti-migration activity in human HT-29 cells assessed as suppression in cell migration at 0.500 uM incubated 48 hrs by wound-healing assay; type: functional, cell-based; conditions: dose 0.5 µM
[3] = tested on: Ehrlich; experiment: Antitumor activity against mouse Ehrlich solid carcinoma cells bearing adult male swiss albino mouse assessed as decrease in tumor weight at 50 mg/kg, po administered every other day and observed at 14 days; type: functional, organism-based; conditions: time 14.0 day
[4] = Acute ulcerogenic activity in Sprague-Dawley male rat assessed as incidence of ulcer/10 animal at 50 mg/kg/day, po administered for 3 days; type: toxicity, organism-based; conditions: in vivo, 72 h, time 3 day
[5] = tested on: Rattus norvegicus; experiment: Antiinflammatory activity against carrageenan-induced paw edema Sprague-Dawley rat model assessed as inhibition of paw edema by measuring edema thickness at 50 mg/kg, po measured after 3 hrs (reference value: 1.41 +/- 0.13 mm); type: functional
[6] = tested on: Ehrlich; experiment: Antitumor activity against mouse Ehrlich solid carcinoma cells bearing adult male swiss albino mouse assessed as decrease in tumor volume at 50 mg/kg, po administered every other day and observed at 5 days; type: functional, organism-based; conditions: time 5.0 day
[7] = Selectivity index, ratio of IC50 for cytotoxicity against human MRC5 cells to IC50 for cytotoxicity against human HT-29 cells; conditions: MRC5 cells versus HT-29 cells
[8] = Acute ulcerogenic activity in Sprague-Dawley male rat assessed as average severity of ulcers at 50 mg/kg/day, po administered for 3 days; type: toxicity, organism-based; conditions: in vivo, 72 h, time 3 day
[9] = tested on: Rattus norvegicus; experiment: Antiinflammatory activity against carrageenan-induced paw edema Sprague-Dawley rat model assessed as inhibition of inflammation at 50 mg/kg, po after 3 hrs relative to control; type: functional; parameters: scale not given: the % may be the effect or the level left
[10] = tested on: MCF7; experiment: Cytotoxicity against human MCF7 cells assessed as inhibition in cell growth incubated for 72 hrs by MTT assay; type: functional, cell-based; conditions: MCF7, 72 h
[11] = tested on: Ehrlich; experiment: Antitumor activity against mouse Ehrlich solid carcinoma cells bearing adult male swiss albino mouse assessed as tumor growth inhibition at 50 mg/kg, po administered every other day and observed at 13 days relative to control; type: functional; conditions: 312 h, time 13 day, read-out: TGI
[12] = tested on: Ehrlich; experiment: Antitumor activity against mouse Ehrlich solid carcinoma cells bearing adult male swiss albino mouse assessed as decrease in tumor volume at 50 mg/kg, po administered every other day and observed at 9 days; type: functional, organism-based; conditions: time 9.0 day
[13] = tested on: Ehrlich; experiment: Antitumor activity against mouse Ehrlich solid carcinoma cells bearing adult male swiss albino mouse assessed as decrease in tumor volume at 50 mg/kg, po administered every other day and observed at 13 days; type: functional, organism-based; conditions: time 13.0 day
[14] = Acute ulcerogenic activity in Sprague-Dawley male rat assessed as change in normal keratinized gastric mucosa at 50 mg/kg/day, po administered for 3 days by hematoxylin and eosin staining method; type: toxicity, organism-based, Stomach; conditions: in vivo, 72 h, time 3 day
[15] = Cytotoxicity against human MRC5 cells assessed as inhibition in cell growth incubated for 72 hrs by MTT assay; type: toxicity, cell-based
[16] = species: Sus scrofa; experiment: Inhibition of porcine brain tubulin polymerization at 1 uM by fluorescence-based tubulin polymerization assay
[17] = Acute ulcerogenic activity in Sprague-Dawley male rat assessed as average number of ulcers at 50 mg/kg/day, po administered for 3 days; type: toxicity, organism-based; conditions: in vivo, 72 h, time 3 day
[18] = tested on: Rattus norvegicus; experiment: Antiinflammatory activity against carrageenan-induced paw edema Sprague-Dawley rat model assessed as inhibition of paw edema by measuring edema thickness at 50 mg/kg, po measured after 1 hr (reference value: 0.71 +/- 0.03 mm); type: functional
[19] = Acute ulcerogenic activity in Sprague-Dawley male rat assessed as congestion in submucosa at 50 mg/kg/day, po administered for 3 days by hematoxylin and eosin staining method; type: toxicity, organism-based, Stomach; conditions: in vivo, 72 h, time 3 day
[20] = tested on: HT-29; experiment: Induction of apoptosis in human HT-29 cells assessed as accumulation of cells at viable stage at 0.5 uM incubated for 24 hrs by Annexin V-FITC/propidium iodide staining based flow cytometry analysis (reference value: 91.7%); type: functional
[21] = tested on: HT-29; experiment: Anticlonogenic activity against human HT-29 cells assessed as reduction in number of colonies at 0.500 uM incubated for 24 hrs by clonogenic survival assay; type: functional, cell-based; conditions: dose 0.5 µM
[22] = tested on: Rattus norvegicus; experiment: Antiinflammatory activity against carrageenan-induced paw edema Sprague-Dawley rat model assessed as inhibition of inflammation at 50 mg/kg, po after 1 hr relative to control; type: functional; parameters: scale not given: the % may be the effect or the level left
[23] = tested on: Rattus norvegicus; experiment: Antiinflammatory activity against carrageenan-induced paw edema Sprague-Dawley rat model assessed as inhibition of inflammation at 50 mg/kg, po after 5 hrs relative to control; type: functional; parameters: scale not given: the % may be the effect or the level left
[24] = Acute ulcerogenic activity in Sprague-Dawley male rat assessed as change in normal non keratinized gastric mucosa at 50 mg/kg/day, po administered for 3 days by hematoxylin and eosin staining method; type: toxicity, organism-based, Stomach; conditions: in vivo, 72 h, time 3 day
[25] = tested on: A2780; experiment: Cytotoxicity against human A2780 cells assessed as inhibition in cell growth incubated for 72 hrs by MTT assay; type: functional, cell-based; conditions: A2780, 72 h
[26] = tested on: HT-29; experiment: Induction of cell cycle arrest in human HT-29 cells assessed as increase the number of cells at S phase at 0.500 uM incubated for 24 hrs by propidium iodide staining based flow cytometry analysis relative to control; type: functional; conditions: dose 0.5 µM
[27] = tested on: HT-29; experiment: Cytotoxicity against human HT-29 cells assessed as inhibition in cell growth incubated for 72 hrs by MTT assay; type: functional, cell-based; conditions: HT-29, 72 h
[28] = tested on: HT-29; experiment: Induction of apoptosis in human HT-29 cells assessed as accumulation of cells at early apoptotic stage at 0.5 uM incubated for 24 hrs by Annexin V-FITC/propidium iodide staining based flow cytometry analysis (reference value: 0.1%); type: functional
[29] = Selectivity index, ratio of IC50 for cytotoxicity against human MRC5 cells to IC50 for cytotoxicity against human MCF7 cells; conditions: MRC5 cells versus MCF7 cells
[30] = tested on: Rattus norvegicus; experiment: Antiinflammatory activity against carrageenan-induced paw edema Sprague-Dawley rat model assessed as inhibition of paw edema by measuring edema thickness at 50 mg/kg, po measured after 5 hrs (reference value: 1.39 +/- 0.11 mm); type: functional
[31] = tested on: HT-29; experiment: Induction of apoptosis in human HT-29 cells assessed as accumulation of cells at necrotic stage at 0.5 uM incubated for 24 hrs by Annexin V-FITC/propidium iodide staining based flow cytometry analysis (reference value: 8.1%); type: functional
[32] = Selectivity index, ratio of IC50 for cytotoxicity against human MRC5 cells to IC50 for cytotoxicity against human A2780 cells; conditions: MRC5 cells versus A2780 cells
[33] = Acute ulcerogenic activity in Sprague-Dawley male rat assessed as change in hyperactive glands at 50 mg/kg/day, po administered for 3 days by hematoxylin and eosin staining method; type: toxicity, organism-based, Stomach; conditions: in vivo, 72 h, time 3 day
[34] = tested on: HT-29; experiment: Induction of apoptosis in human HT-29 cells assessed as accumulation of cells at late apoptotic stage at 0.5 uM incubated for 24 hrs by Annexin V-FITC/propidium iodide staining based flow cytometry analysis (reference value: 0.2%); type: functional
[35] = biological target: T1, Prostaglandin G/H synthase 1 (Ovis aries, UniProt P05979); experiment: Inhibition of ovine COX-1
T1 sequence (P05979 whole entry): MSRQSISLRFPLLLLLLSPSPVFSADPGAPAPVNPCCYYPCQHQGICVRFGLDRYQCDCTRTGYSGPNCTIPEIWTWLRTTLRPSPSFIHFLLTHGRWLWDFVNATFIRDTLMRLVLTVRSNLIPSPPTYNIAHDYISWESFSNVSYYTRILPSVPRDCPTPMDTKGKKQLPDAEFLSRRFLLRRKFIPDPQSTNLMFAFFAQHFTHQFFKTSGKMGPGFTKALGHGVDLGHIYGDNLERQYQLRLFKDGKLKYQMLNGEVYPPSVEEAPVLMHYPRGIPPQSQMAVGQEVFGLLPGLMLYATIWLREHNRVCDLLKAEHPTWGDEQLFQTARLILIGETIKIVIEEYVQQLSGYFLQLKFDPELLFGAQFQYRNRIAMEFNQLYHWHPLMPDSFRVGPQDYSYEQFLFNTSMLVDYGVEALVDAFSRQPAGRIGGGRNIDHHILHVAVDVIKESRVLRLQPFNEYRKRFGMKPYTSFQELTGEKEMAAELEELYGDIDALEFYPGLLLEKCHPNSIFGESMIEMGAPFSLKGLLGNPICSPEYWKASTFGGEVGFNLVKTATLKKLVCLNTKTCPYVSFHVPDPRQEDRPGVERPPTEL

[36] = Acute ulcerogenic activity in Sprague-Dawley male rat assessed as ulcer index at 50 mg/kg/day, po administered for 3 days; type: toxicity, organism-based; conditions: in vivo, 72 h, time 3 day
[37] = tested on: HT-29; experiment: Induction of cell cycle arrest in human HT-29 cells assessed as increase the number of cells at G2/M phase at 0.500 uM incubated for 24 hrs by propidium iodide staining based flow cytometry analysis relative to control; type: functional; conditions: dose 0.5 µM
[38] = tested on: HT-29; experiment: Induction of apoptosis in human HT-29 cells assessed as accumulation of cells at late apoptotic stage at 0.025 uM incubated for 24 hrs by Annexin V-FITC/propidium iodide staining based flow cytometry analysis (reference value: 0.2%); type: functional
[39] = tested on: HT-29; experiment: Induction of apoptosis in human HT-29 cells assessed as accumulation of cells at necrotic stage at 0.025 uM incubated for 24 hrs by Annexin V-FITC/propidium iodide staining based flow cytometry analysis (reference value: 8.1%); type: functional
[40] = Acute ulcerogenic activity in Sprague-Dawley male rat assessed as change in normal gastric mucosa with mild congestion of the blood vessels in the submucosa at 50 mg/kg/day, po administered for 3 days by hematoxylin and eosin staining method; type: toxicity, organism-based, Stomach; conditions: in vivo, 72 h, time 3 day
[41] = tested on: HT-29; experiment: Induction of apoptosis in human HT-29 cells assessed as accumulation of cells at early apoptotic stage at 0.025 uM incubated for 24 hrs by Annexin V-FITC/propidium iodide staining based flow cytometry analysis (reference value: 0.1%); type: functional
[42] = tested on: HT-29; experiment: Induction of apoptosis in human HT-29 cells assessed as accumulation of cells at viable stage at 0.025 uM incubated for 24 hrs by Annexin V-FITC/propidium iodide staining based flow cytometry analysis (reference value: 91.7%); type: functional
[43] = tested on: HT-29; experiment: Anticlonogenic activity against human HT-29 cells assessed as reduction in number of colonies at 0.025 uM incubated for 24 hrs by clonogenic survival assay; type: functional, cell-based
[44] = tested on: HT-29; experiment: Anti-migration activity in human HT-29 cells assessed as suppression in cell migration at 0.025 uM incubated 48 hrs by wound-healing assay; type: functional, cell-based

Compound | Activity [3] | Activity [4] [%] | Activity [5] [mm] | Activity [6] | selectivity ratio at 72 h [7] | Activity [8] | Activity [9] [%] | IC50 [10] [nM] | inhibition in vivo at 50 mg/kg [11] [%] | Activity [12] | Activity [13] | IC50 at 72 h [15] [nM] | inhibition [16] | Activity [17] | Activity [18] [mm] | Activity [22] [%] | Activity [23] [%] | IC50 [25] [nM] | IC50 [27] [nM] | selectivity ratio at 72 h [29] | other results
Cc1ccc(C2SCC(=O)N2c2ccc(OCC(=O)Nc3ccc(F)cc3)cc2)cc1 (stereo not drawn) | Active | 10 | 0.55 | Active | 5.35 | 2.6 | 32.7 | 810 | 57.2 | Active | Active | 2460 | inactive | 1.67 | 0.59 | 15.3 | 58.99 | 10500 | 460 | 3.04 | Activity [1]: Toxic; Activity [2]: Active; Activity [14]: Non-Toxic; Activity [19]: Toxic; Activity [20]: 76.2%; Activity [21]: Active; Activity [24]: Non-Toxic; Activity [26]: 6.8%; Activity [28]: 10%; Activity [30]: 0.57 mm; Activity [31]: 7.7%; selectivity ratio at 72 h [32]: 0.23; Activity [33]: Non-Toxic; Activity [34]: 6.1%; IC50 [35]: 2110 nM; UI [36]: 14.27; Activity [37]: 15.6%
Cc1ccc(C2SCC(=O)N2c2ccc(OCC(=O)Nc3ccc(Cl)cc3)cc2)cc1 (stereo not drawn) | Active | 10 | 0.49 | Active | 23.5 | 2 | 32.7 | 110 | 51.6 | Active | Active | 470 | Active | 3.33 | 0.52 | 15.3 | 47.48 | 180 | 20 | 4.27 | Activity [38]: 15.6%; Activity [39]: 24.1%; Activity [40]: Non-Toxic; Activity [41]: 19.2%; Activity [42]: 41.1%; Activity [43]: Active; Activity [30]: 0.73 mm; selectivity ratio at 72 h [32]: 2.61; IC50 [35]: 13400 nM; UI [36]: 15.33; Activity [44]: Active
